In US20240165123A1, “USE OF A COMPOUND CONTAINING A TRICYCLIC HETEROARYL GROUP” (CSPC Zhongqi Pharmaceutical Technology (Shijiazhuang) Co., …, priority 2021, published 2024):

Assays:
JAK1 = JAK1 (Homo sapiens, UniProt P23458); assay: Kinase activity inhibition test (Mobility Shift Assay); format: biochemical; settings: 66 μM ATP
Protocol: (§1) • 1. kinases: SYK, JAK1, JAK2, JAK3 and TYK2 • 2. test method
(§2) Protein kinase activity was determined by Mobility Shift Assay. Compound (I) was dissolved in DMSO and prepared into concentration gradients in 100% DMSO. By the dilution with the kinase buffer, 5 μL of Compound (I) (10% DMSO) was added to a 384-well plate at 5 folds of the final reaction concentration. 10 μL of 2.5-fold enzyme solution was added and the incubation was performed at room temperature for 10 min, followed by the addition of 10 μL of 2.5-fold substrate solution. The incubation was performed at 28° C. for 60 min and […] of stop solution was added to the 384-well reaction plate to terminate the reaction (100 mM HEPES, pH 7.5, 0.015% Brij-35, 0.2% Coating Reagent #3, 50 mM EDTA). The conversion data was copied from the Caliper EZ Reader, and converted into the inhibition data, % inhibition=(max-conversion)/(max-min)×100%, wherein, “min” is the conversion for the control sample well where the reaction was performed without adding the enzyme; and “max” is the conversion for the control well where DMSO was added. The curve was drawn with the compound concentration and the inhibition rate as the horizontal and vertical is coordinates, and the IC50 value was calculated by fitting with XLFit excel add-in version 5.4.0.8. Fitting equation:
(§3) Y=Bottom+(Top-Bottom)/(1+(IC50/X)^HillSlope).

JAK2 = JAK2 (Homo sapiens, UniProt O60674); assay: as above; format: biochemical; settings: 6.5 μM ATP
Protocol: as §1, §2, §3

JAK3 = molecular target: T1, JAK3 (Homo sapiens, UniProt P52333); assay: as above; format: biochemical; settings: 4.3 μM ATP
T1 sequence (P52333 1-1124): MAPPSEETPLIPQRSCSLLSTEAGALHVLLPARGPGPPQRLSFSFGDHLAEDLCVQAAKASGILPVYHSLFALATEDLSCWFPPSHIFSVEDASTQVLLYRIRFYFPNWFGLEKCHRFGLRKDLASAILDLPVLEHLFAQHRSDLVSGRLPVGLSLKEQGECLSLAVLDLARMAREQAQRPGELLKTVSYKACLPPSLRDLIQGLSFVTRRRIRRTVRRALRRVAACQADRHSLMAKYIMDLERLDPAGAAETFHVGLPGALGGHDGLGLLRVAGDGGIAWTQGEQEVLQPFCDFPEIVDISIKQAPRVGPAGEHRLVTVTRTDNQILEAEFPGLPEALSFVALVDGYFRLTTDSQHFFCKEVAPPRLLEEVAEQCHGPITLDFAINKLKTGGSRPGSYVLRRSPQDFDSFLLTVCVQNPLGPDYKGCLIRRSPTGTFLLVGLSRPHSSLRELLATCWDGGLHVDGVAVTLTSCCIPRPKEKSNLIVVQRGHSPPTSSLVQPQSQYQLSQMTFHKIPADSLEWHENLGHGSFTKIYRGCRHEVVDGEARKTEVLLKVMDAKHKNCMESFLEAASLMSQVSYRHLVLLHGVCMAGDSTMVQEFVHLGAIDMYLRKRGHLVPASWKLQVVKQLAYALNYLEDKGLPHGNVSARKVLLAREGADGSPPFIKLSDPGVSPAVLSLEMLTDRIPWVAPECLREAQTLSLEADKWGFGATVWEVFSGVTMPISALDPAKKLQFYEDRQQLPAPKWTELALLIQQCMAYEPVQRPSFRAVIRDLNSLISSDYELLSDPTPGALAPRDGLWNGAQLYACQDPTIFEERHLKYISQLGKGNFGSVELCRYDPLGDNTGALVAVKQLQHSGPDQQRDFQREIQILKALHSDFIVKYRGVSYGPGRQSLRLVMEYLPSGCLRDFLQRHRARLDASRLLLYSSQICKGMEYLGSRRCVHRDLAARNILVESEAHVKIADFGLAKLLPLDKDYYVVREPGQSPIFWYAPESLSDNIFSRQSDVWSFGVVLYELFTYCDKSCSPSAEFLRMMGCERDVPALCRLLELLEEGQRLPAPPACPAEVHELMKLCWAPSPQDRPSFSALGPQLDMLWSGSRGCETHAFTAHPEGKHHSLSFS
Protocol: as §1, §2, §3

SYK = SYK (Homo sapiens, UniProt P43405); assay: as above; format: biochemical; settings: 2 μM ATP
Protocol: as §1, §2, §3

TYK2 = TYK2 (Homo sapiens, UniProt P29597); assay: as above; format: biochemical; settings: 16 μM ATP
Protocol: as §1, §2, §3

[1] = Toxicity test of oral gavage administration in Beagle dogs, 28 consecutive days; format: in vivo; settings: for AUC: NOAEL 3 mg/kg/time BID, 28-day test
Protocol: (§4) According to the general toxicology study in accordance with the NMPA “Good Laboratory Practice for Non-clinical Laboratory Studies” and FDA GLP specification (21CFR Part 58), and in line with the requirements of International Conference on Harmonization of Technical Requirements for Registration of Pharmaceuticals for Human Use (ICH) and the NMPA relevant guidelines, the toxicology study on Compound (I) was carried out to provide safety data support for the use of Compound (I) in clinical patients. The administration mode and the experimental results were as follows: […]

[2] = Phase I clinical trial, single ascending dose; format: in vivo; settings: human; single ascending dose up to 240 mg
Protocol: Compound (I) had no effect on the central nervous system, respiratory system and cardiovascular system of animals, and was expected to have no side effects on the central nervous system, respiratory system and cardiovascular system of human. The NOAEL of single administration to rats was 2000 mg/kg, the MTD of administration to Beagle dogs was 500 mg/kg/time (1000 mg/kg/day), the NOAEL of repeated administration to rats for 28 days was 10 mg/kg/time (20 mg/kg/day), and the NOAEL of repeated administration to Beagle dogs for 28 days was 3 mg/kg/time (6 mg/kg/ day). […] The effective dose for rats was 3 mg/kg/time bid. According to the exposure, Compound (I) had 1-fold safety window in Beagles and 8-13-fold safety window in SD rats. According to the dose calculation, Compound (I) had 3-fold safety windows in both Beagle dogs and SD rats. The proposed and undetermined initial ascending dose of Compound (I) in the first-in-human trial was 15 mg. […] Therefore, according to the pre-clinical toxicological study data of Compound (I), the single ascending doses of phase I clinical trial to be carried out were 15 mg, 45 mg, 60 mg, 90 mg, 135 mg, 180 mg, 240 mg, 300 mg and 360 mg.

[3] = Effect on central nervous, respiratory and cardiovascular system of animals; format: in vivo
Protocol: as §4

JAK1, sequence (P23458 whole entry, species assumed): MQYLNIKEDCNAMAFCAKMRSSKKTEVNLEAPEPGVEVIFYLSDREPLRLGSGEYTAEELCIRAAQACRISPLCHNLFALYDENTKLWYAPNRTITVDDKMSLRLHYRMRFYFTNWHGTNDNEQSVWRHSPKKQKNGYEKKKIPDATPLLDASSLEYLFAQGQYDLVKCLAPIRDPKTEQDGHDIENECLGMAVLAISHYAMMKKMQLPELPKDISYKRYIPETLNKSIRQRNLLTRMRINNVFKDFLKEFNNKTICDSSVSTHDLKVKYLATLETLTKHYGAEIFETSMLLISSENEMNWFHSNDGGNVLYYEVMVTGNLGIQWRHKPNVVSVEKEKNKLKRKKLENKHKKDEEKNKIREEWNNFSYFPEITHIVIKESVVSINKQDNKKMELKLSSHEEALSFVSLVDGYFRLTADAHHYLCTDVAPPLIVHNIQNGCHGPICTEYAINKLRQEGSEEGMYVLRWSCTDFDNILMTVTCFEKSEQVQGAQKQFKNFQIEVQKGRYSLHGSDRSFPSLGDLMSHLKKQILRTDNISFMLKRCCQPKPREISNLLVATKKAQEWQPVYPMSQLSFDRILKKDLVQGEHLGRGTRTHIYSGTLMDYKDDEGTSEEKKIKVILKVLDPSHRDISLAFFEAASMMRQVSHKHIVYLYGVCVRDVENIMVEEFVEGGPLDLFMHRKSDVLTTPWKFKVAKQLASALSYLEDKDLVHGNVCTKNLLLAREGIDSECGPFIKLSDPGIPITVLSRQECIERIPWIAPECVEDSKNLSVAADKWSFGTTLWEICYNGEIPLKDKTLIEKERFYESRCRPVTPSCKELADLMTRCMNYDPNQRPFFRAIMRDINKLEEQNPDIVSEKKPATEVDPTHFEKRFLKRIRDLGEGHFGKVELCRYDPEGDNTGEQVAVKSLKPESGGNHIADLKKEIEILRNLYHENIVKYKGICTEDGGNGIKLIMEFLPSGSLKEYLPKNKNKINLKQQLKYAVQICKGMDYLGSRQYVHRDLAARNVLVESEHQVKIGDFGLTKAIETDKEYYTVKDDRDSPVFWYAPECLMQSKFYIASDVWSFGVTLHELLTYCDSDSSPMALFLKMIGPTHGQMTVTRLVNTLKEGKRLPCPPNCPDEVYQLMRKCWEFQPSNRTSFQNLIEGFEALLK
JAK2, sequence (O60674 whole entry, species assumed): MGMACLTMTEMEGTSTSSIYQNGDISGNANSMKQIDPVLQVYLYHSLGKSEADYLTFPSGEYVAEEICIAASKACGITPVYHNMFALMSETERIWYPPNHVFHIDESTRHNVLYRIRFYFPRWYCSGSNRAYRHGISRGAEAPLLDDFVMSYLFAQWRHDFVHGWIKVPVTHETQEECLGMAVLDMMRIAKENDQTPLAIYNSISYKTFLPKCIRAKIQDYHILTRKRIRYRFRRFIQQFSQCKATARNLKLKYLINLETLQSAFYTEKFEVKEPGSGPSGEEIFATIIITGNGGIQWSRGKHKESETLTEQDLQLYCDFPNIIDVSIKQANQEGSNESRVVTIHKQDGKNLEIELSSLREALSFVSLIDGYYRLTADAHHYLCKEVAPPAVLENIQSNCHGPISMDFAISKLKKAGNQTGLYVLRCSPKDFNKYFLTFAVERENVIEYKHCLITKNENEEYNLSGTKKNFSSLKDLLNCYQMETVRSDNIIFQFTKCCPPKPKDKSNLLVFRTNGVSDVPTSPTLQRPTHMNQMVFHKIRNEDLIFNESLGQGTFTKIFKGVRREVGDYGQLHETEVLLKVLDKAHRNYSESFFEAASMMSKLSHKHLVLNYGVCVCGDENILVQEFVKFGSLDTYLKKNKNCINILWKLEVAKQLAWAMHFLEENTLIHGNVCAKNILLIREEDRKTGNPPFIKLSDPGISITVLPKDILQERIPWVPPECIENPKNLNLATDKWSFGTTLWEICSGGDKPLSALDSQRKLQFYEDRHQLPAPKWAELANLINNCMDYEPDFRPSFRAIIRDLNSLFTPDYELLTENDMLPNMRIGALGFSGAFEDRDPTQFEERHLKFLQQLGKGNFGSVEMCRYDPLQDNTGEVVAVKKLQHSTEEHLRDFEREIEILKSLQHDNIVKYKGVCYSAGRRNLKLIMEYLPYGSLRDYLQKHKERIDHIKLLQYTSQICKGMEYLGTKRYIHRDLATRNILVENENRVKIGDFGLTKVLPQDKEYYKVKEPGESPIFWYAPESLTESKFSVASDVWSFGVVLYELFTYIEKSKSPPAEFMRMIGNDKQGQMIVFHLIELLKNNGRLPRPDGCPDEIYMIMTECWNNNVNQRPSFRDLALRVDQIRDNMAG
TYK2, sequence (P29597 whole entry, species assumed): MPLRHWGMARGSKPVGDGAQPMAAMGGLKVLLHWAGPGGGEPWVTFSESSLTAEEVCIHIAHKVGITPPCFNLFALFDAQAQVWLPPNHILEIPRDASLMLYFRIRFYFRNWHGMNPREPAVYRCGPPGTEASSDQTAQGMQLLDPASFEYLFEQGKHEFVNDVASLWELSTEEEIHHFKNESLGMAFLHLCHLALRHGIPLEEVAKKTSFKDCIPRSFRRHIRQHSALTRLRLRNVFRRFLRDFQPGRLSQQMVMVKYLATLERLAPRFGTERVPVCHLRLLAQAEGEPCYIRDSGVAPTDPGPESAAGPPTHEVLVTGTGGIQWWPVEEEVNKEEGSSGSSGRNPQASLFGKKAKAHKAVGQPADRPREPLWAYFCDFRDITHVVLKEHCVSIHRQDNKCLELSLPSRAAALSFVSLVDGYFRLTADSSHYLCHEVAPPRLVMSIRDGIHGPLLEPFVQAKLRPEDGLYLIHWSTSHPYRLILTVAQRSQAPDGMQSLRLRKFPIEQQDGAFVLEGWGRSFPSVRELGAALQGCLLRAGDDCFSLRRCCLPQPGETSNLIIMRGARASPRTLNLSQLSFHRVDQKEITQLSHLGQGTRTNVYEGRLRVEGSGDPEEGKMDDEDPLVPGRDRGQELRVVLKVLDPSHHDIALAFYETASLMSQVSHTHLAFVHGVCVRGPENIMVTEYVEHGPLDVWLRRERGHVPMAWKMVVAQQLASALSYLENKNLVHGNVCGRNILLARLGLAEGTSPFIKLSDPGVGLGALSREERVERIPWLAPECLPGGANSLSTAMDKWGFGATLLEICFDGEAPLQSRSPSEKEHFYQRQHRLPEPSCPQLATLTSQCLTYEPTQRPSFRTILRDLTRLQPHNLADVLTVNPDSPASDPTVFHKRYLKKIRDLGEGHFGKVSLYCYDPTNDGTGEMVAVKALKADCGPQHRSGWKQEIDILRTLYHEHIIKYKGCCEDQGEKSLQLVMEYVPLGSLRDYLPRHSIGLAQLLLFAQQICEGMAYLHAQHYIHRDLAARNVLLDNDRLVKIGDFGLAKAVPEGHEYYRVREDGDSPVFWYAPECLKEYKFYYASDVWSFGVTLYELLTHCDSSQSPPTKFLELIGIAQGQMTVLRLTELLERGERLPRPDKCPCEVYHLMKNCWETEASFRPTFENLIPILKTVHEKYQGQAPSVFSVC

Compound: NC(=O)c1cnc(Nc2ccc3c(c2)OC[C@H]2CN(S(=O)(=O)C4CC4)CCN32)nc1NC1CC1 [Compound (I), (R)-4-(cyclopropylamino)-2-((3-(cyclopropylsulfonyl)-1,2,3,4,4a,5-hexahydrobenzo[b]pyrazolo[1,2-d][1,4]oxazin-8-yl)amino)pyrimidine-5-arboxamide]
- IC50 (JAK1): 20 nM
- IC50 (JAK2): 3.92 nM
- IC50 (JAK3): 1.43 nM
- IC50 (SYK): 7.25 nM
- IC50 (TYK2): 0.82 nM
- Safety window, dose method ([1]; Beagle dogs, NOAEL 28-day test vs rat effective dose): 3 fold
- Safety window, exposure method ([1]; Beagle dogs, NOAEL 28-day test vs rat effective dose exposure): 1 fold
- Safety window of human equivalent dose of NOAEL relative to the human initial dose ([1]; beagle, dog, in vivo, 28 days): 14 fold
- NOAEL at 28 days ([1]; beagle, dog, in vivo, po): 6 mg/kg/day
- NOAEL of repeated administration for 28 days ([1]; dog, in vivo, po): 3 mg/kg/time
- AUC ([1]; female, beagle, dog, in vivo, po, dogs ♀): 3930 ng·h/mL
- AUC ([1]; male, beagle, dog, in vivo, po, dogs ♂): 3300 ng·h/mL
- Human equivalent dose (based on 60 kg body weight) ([1]; of NOAEL for 28-day test of dogs): 210 mg
- Safety in phase I clinical trial [2]: no safety issues above Level 3
- Effect on the central nervous system, respiratory system and cardiovascular system [3]: no effect
